“And” between values parts separate entries of the source, which are not always exact repeats. Equal values may be shown once.
Tests used:
hepatoma cells Hep3B = test: Promotion of erythropoietin (EPO) expression in hepatoma cells Hep3B in vitro (ELISA); type: cell-based, Human; settings: Hep3B supernatant, 24 hours, test doses 100 μmol/L and 10 μmol/L (dose of the tabulated value not given)
Description: Biological Example 1: Development and Screening of In Vitro Detection Methods: Promotion of Erythropoietin Expression in Hepatoma Cells Hep3B In Vitro by HIF-PHD2 Inhibitor Compounds
The complete medium for culture of Experimental hepatoma cells Hep3B (China Center for Type Culture Collection, CCTCC) was MEM (Cat# GNM 41500, GIBCO, provided by Hangzhou Genom Biopharmaceutical Technology Co., Ltd) supplemented with 10% serum FBS (Cat#10099-141, GIBCO) and 1% P/S (Cat#GNM15140, provided by Hangzhou Genom Biopharmaceutical Technology Co., Ltd). Cells were cultured in a 37° C., 5% CO2 incubator. Experimental reagents included dimethyl sulfoxide (for molecular biology, >=99.9%, Catalog # D8418) purchased from Sigma. The ELISA kit was purchased from Quantikine IVD ELISA, Human Erythropoietin (R&D, DEP00). The test control AKB-6548 was prepared by the inventors or obtained by commercial purchase. The test substance was stored at −20° C. in the dark.
The test substance and the positive control substance were fully dissolved in sterile water or dimethylsulfoxide under dark conditions and prepared into a stock solution at a concentration of 10^−1 mol/L or 10^−2 mol/L. Each of the stock solutions was stored at −20° C. MEM medium containing 0.5% FBS was used as a diluent to dilute the stock solution of the test substance, to prepare a diluted test substance at a concentration of 100 μmol/L and 10 μmol/L. To a 96-well culture plate was added 200 μl/well (1.5 or 2.0×10^4 cells/well) of hepatoma cells Hep3B complete medium suspension and incubated overnight at 37° C. in a 5% CO2 incubator. The solution in the 96-well culture plate was removed and the cells were washed once with the MEM medium containing 0.5% FBS. 200 μl/well of the test substance was added in the dark, at a dose of 100 μmol/L and 10 μmol/L, and each dose set 2 wells, a test well and a spare well. A cell control well was prepared by replacing the test solution with the diluent (without test substance and solvent). A solvent control well was prepared by replacing the test solution with the diluent containing the corresponding concentration of solvent (dimethylsulfoxide) (without test substance). They were cultured in a 5% CO2 incubator at 37° C. for 24 hours. The supernatant was absorbed as a sample and cryopreserved at −20° C. for use. 100 μl/well of stop solution was added. OD value was detected by microplate reader A450 nm-A600 nm. The expression level of EPO (mIU/mL) promoted by the test substance was obtained according to the standard curve.

[1] = biological target: HIF Prolyl hydroxylases 2 (PHD2) (Homo sapiens, UniProt Q9GZT9); test: PHD2 inhibition, fluorescence polarization (FP) detection of HIF-1α / VBC complex interaction; type: biochemical; settings: PHD2 0.5 μg/μl, FAM-HIF (556-575) 1 μM, 30 minutes room temperature
Sequence of HIF Prolyl hydroxylases 2 (PHD2) (Q9GZT9 whole entry, species assumed): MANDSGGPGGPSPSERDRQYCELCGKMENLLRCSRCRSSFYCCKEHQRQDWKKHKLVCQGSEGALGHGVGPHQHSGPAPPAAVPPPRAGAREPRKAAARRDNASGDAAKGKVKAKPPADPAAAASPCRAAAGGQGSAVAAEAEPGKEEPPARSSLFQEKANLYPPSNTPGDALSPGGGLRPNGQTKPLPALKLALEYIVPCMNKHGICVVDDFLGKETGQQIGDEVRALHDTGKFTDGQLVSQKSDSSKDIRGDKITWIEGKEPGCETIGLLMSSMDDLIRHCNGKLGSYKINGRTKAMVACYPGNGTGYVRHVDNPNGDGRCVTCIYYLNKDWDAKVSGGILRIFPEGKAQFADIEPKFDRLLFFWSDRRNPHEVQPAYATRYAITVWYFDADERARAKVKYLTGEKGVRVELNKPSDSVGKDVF
Description: The interaction between hypoxia-inducible factor HIF-1α and VBC complex (von Hippel-Lindau protein-Elongin B-Elongin C, VBC) was detected by Fluorescence polarization (FP) method, to measure the enzyme inhibitory activity of the HIF Prolyl hydroxylases 2 (PHD2) inhibitor compounds.
Subsequently, the desired concentration of the test compound or the positive compound was added (the compound was replaced by the buffer in the negative control and the positive control). Finally, PHD2 was added at a final concentration of 0.5 μg/μl (PHD2 was replaced by the buffer in the negative control). They were mixed well and allowed to stand at room temperature for 30 minutes in the dark followed by 95° C. water bath for 1 minute, and then the reaction was terminated. After the temperature drops to room temperature, the sample was prepared well for use. EBC buffer (50 mM Tris.HCl, 120 mM NaCl, 0.5% NP-40) was added to the corresponding wells of a black 96-well test plate. A GST-VBC complex was added to the corresponding test wells at a final concentration of 300 nM (using the wells containing only EBC buffer as blank wells). Subsequently, the corresponding PHD2 prolyl hydroxylation reaction sample was added in the dark as a substrate with a final concentration of 100 nM. After mixing well, the lateral and longitudinal fluorescence intensity values were measured using a full-wavelength multifunctional microplate reader (TECAN infinite M1000) at an excitation wavelength of […] and an emission wavelength of 518 nm.
The fluorescence polarization (mP) was calculated: mP=1000×(lateral value−G factor×longitudinal value)/(lateral value+G factor×longitudinal value) wherein, lateral value=lateral fluorescence intensity value of test well−lateral fluorescence intensity value of blank well, longitudinal value=longitudinal fluorescence intensity value of test well−longitudinal fluorescence intensity value of blank well, […]
The IC50 was calculated using the non-linear regression data analysis method of Graphpad Prism 4.0 software ([…]).

male Balb/c mice = test: Effect on increasing erythrocyte of normal mice: reticulocyte (RETIC) count; type: in vivo; settings: 25 mg/kg, oral, once a day × 3, four hours after the last administration; for RETIC, individual mice (Mice No. 1-8): one value per mouse; for RETIC, Average: orbital blood
Description: Biological Example 3: Effect of the Compounds of the Present Invention on Increasing Erythrocyte of Normal Mice
80 male Balb/c mice were divided into 11 groups, with 8 animals for each drug group, 10 animals for blank control group. Drug group: AKB-6548, 100 mg/kg, oral administration, once a day×3; FG-4592, 25 mg/kg, oral administration, once a day×3; EPO, 100 IU/kg, Day 1 and Day 3, subcutaneous injection, as positive control groups. Each of the compounds of the present invention was orally administrated at 25 mg/kg, once a day×3. Four hours after the last administration, orbital blood of all animals were collected and treated with EDTA-K2 anticoagulant, and reticulocytes (RETIC) were counted with a blood cell automated analyzer.

IC50 [1] | SMILES | EPO level of the test substance (hepatoma cells Hep3B) | RETIC, individual mice (Mice No. 1-8) (male Balb/c mice) | RETIC, Average (male Balb/c mice)
7.7 µM | COc1cccc(-c2ccc3c(O)c(C(=O)NCC(=O)O)ncc3n2)c1 [Compound 15] | 6.316 mIU/mL | 4.9 (3×) and 4.6 and 4.1 and 3.7 and 3.8 and 3.1 | 4.25
5.2 µM | O=C(O)CNC(=O)c1ncc2nc(-c3ccc(C(F)(F)F)cc3)ccc2c1O [Compound 23, 2-{5-hydroxy-[2-(4-trifluoromethyl)-phenyl]-[1,7]-napthyridine-6-formamido} acetic acid] | 0.72 mIU/mL | 2.9 and 3.2 (3×) and 3 and 5.1 and 9.1 | 4.24

— US9994566B2, “Compound of 5-hydroxyl-1,7-naphthyridine substituted by aryl or heteroaryl, preparation method thereof and pharmaceutical use thereof” (SHENYANG SUNSHINE PHARMACEUTICAL CO. LTD., priority 2015, dated 2018)
